Measurements from patent US12691112B2, “FGFR tyrosine kinase inhibitors for the treatment of urothelial carcinoma” (Janssen Pharmaceutica NV, priority 2019, dated 2026).

Test system: subjects with metastatic or surgically unresectable urothelial cancer
Conditions: all-causality; 10 mg intermittent, n = 33
Experimental: Study treatment was administered on 28-day cycles. […] Patients were randomized 1:1 to 28-day cycles to the following 2 regimens until a regimen was selected for further study: Regimen 1 (10 mg once daily intermittent (7 days on/7 days); Regimen 2 (6 mg once daily continuous). Randomization was stratified according to performance status (0 to 1 vs. 2), hemoglobin value (<10 vs. ≥10 g per dl), FGFR alteration type (mutation vs. fusion), prior treatment status (chemotherapy-resistant vs. chemotherapy naïve), and disease distribution (presence or absence of visceral [liver, lung, bone]metastases). Starting dose selection was based on phase 1 efficacy and tolerability.
Based on interim analysis and pharmacokinetic-pharmacodynamic modeling of serum phosphate levels, starting dose was increased to 8 mg per day continuous (Regimen 3). Thus, after interim analysis, this became a single-arm study. […] Treatment continued until disease progression or unacceptable adverse event(s) per investigator.
Safety was evaluated based on clinical laboratory tests, physical exams, electrocardiograms, and ophthalmology examinations. Adverse events and abnormalities were assessed by investigator and graded per NCI CTCAE v.4.0
Prophylactic measures were taken to minimize risk of common adverse events related to FGFR inhibition. To reduce risk of hyperphosphatemia, a low-phosphate diet was recommended for all patients (600 to 800 mg of dietary phosphate intake per day). To reduce the risk of skin effects, the application of alcohol-free emollient moisturizing cream and avoidance of unnecessary exposure to sunlight, soap, perfumed products, and hot baths was recommended. Patients were asked to keep their fingers and toes clean and nails trimmed to reduce risk of nail effects.
Additional ophthalmology examinations were performed if clinically indicated.

COc1cc(OC)cc(N(CCNC(C)C)c2ccc3ncc(-c4cnn(C)c4)nc3c2)c1 [erdafitinib, N-(3,5-dimethoxy-phenyl)-N′-(1-methylethyl)-N-[3-(1-methyl-1H-pyrazol-4-yl)quinoxalin-6-yl]ethane-1,2-diamine]
Decreased appetite, grade ≥ 3: 1 no.
Diarrhea, any grade: 14 no.
Diarrhea, grade 1: 7 no.
Diarrhea, grade 2: 6 no.
Diarrhea, grade ≥ 3: 1 no.
Dry eye, any grade: 3 no.
Dry eye, grade 1: 2 no.
Dry eye, grade 2: 1 no.
Dry eye, grade ≥ 3: 0 no.
Dry mouth, any grade: 16 no.
Dry mouth, grade 1: 15 no.
Dry mouth, grade 2: 1 no.
Dry mouth, grade ≥ 3: 0 no.
Dry skin, any grade: 9 no.
Dry skin, grade 1: 8 no.
Dry skin, grade 2: 1 no.
Dry skin, grade ≥ 3: 0 no.
Dysgeusia, any grade: 10 no.
Dysgeusia, grade 1: 7 no.
Dysgeusia, grade 2: 3 no.
Dysgeusia, grade ≥ 3: 0 no.
Dyspepsia, any grade: 3 no.
Dyspepsia, grade 1: 2 no.
Dyspepsia, grade 2: 1 no.
Dyspepsia, grade ≥ 3: 0 no.
Dyspnea, any grade: 8 no.
Dyspnea, grade 1: 3 no.
Dyspnea, grade 2: 2 no.
Dyspnea, grade ≥ 3: 3 no.
Fatigue, any grade: 6 no.
Fatigue, grade 1: 4 no.
Fatigue, grade 2: 2 no.
Fatigue, grade ≥ 3: 0 no.
Hand-foot syndrome, any grade: 2 no.
Hand-foot syndrome, grade 1: 0 no.
Hand-foot syndrome, grade 2: 2 no.
Hand-foot syndrome, grade ≥ 3: 0 no.
Hematuria, any grade: 3 no.
Hematuria, grade 1: 1 no.
Hematuria, grade 2: 2 no.
Hematuria, grade ≥ 3: 0 no.
Hyperphosphatemia, any grade: 16 no.
Hyperphosphatemia, grade 1: 15 no.
Hyperphosphatemia, grade 2: 1 no.
Hyperphosphatemia, grade ≥ 3: 0 no.
Hypomagnesemia, any grade: 2 no.
Hypomagnesemia, grade 1: 2 no.
Hypomagnesemia, grade 2: 0 no.
Hypomagnesemia, grade ≥ 3: 0 no.
Hyponatremia, any grade: 2 no.
Hyponatremia, grade 1: 0 no.
Hyponatremia, grade 2: 0 no.
Hyponatremia, grade ≥ 3: 2 no.
Insomnia, any grade: 3 no.
Insomnia, grade 1: 0 no.
Insomnia, grade 2: 3 no.
Insomnia, grade ≥ 3: 0 no.
Lacrimation increased, any grade: 6 no.
Lacrimation increased, grade 1: 5 no.
Lacrimation increased, grade 2: 1 no.
Lacrimation increased, grade ≥ 3: 0 no.
Nail dystrophy, any grade: 2 no.
Nail dystrophy, grade 1: 2 no.
Nail dystrophy, grade 2: 0 no.
Nail dystrophy, grade ≥ 3: 0 no.
Nausea, any grade: 5 no.
Nausea, grade 1: 3 no.
Nausea, grade 2: 2 no.
Nausea, grade ≥ 3: 0 no.
Onycholysis, any grade: 7 no.
Onycholysis, grade 1: 3 no.
Onycholysis, grade 2: 3 no.
Onycholysis, grade ≥ 3: 1 no.
Onychomadesis, any grade: 1 no.
Onychomadesis, grade 1: 1 no.
Onychomadesis, grade 2: 0 no.
Onychomadesis, grade ≥ 3: 0 no.
Oropharyngeal pain, any grade: 0 no.
Oropharyngeal pain, grade 1: 0 no.
Oropharyngeal pain, grade 2: 0 no.
Oropharyngeal pain, grade ≥ 3: 0 no.
Pain in extremity, any grade: 5 no.
Pain in extremity, grade 1: 3 no.
Pain in extremity, grade 2: 1 no.
Pain in extremity, grade ≥ 3: 1 no.
Paronychia, any grade: 2 no.
